The values below come from US20160024062A1, “ISOXAZOLINE DERIVATIVES FOR CONTROLLING INVERTEBRATE PESTS” (NOVARTIS TIERGESUNDHEIT AG, priority 2011, published 2016).

Each structure is given as a SMILES string.

Data set [1] has as its system Rhipicephalus sanquineus nymphs. Nature of the data set: Activity in vivo against Rhipicephalus sanquineus nymphs on Mongolian gerbils (spray application). To be noted: engorged nymphs counted seven days after infestation, vs placebo (Abbot's formula). The procedure:
On day 0, gerbils are treated with the test compound at a given dose by spray application. On day +1 (+2), the animals are infested with nymphs of R. sanguineus. Ticks are left on the animals until full repletion. Seven days after infestation nymphs dropped off fully engorged are collected and counted. Efficacy in killing is expressed as a tick number reduction in comparison with a placebo treated group, using the Abbot's formula.

In data set [2] the test system is Ctenocephalides felis (cat flea). Nature of the data set: Activity in vivo against Ctenocephalides felis (cat flea) on Mongolian gerbils (per oral application). To be noted: dose 3.2 mg/kg, oral gavage, live fleas counted 48 h after infestation, vs placebo (Abbot's formula). The procedure:
On day 0, gerbils are treated orally by gavage with the test compound formulated at a given dose. Immediately after treatment, they are infested with a mixed adult population of cat fleas. Evaluation of efficacy is performed 48 h infestation by counting the numbers of live fleas recovered from the gerbils. Efficacy is expressed as comparison with a placebo treated group using the Abbot's formula.

The test system is the same in data set [3]. Description: Activity in vivo against Ctenocephalides felis (cat flea) on Mongolian gerbils (spray application). To be noted: live fleas counted 24 h and 48 h after infestation, vs placebo (Abbot's formula). The procedure:
On day 0, gerbils are treated with the test compound at a given dose by spray application. On day +1, the animals are infested with a mixed adult population of cat fleas. Evaluation of efficacy is performed 24 h and 48 h infestation by counting the numbers of live fleas recovered from the gerbils. Efficacy is expressed as comparison with a placebo treated group using the Abbot's formula.

Broadly, the melting point is the temperature of the solid-liquid transition. For the compound `Cc1oc(C2=NOC(c3cc(Cl)cc(Cl)c3)(C(F)(F)F)C2)cc1C(=O)NCC(=O)NCC(F)(F)F` (stereo not drawn) [Compound 1.19, 5-(5-(3,5-dichlorophenyl)-5-(trifluoromethyl)-4,5-dihydroisoxazol-3-yl)-2-methyl-N-(2-oxo-2-((2,2,2-trifluoroethyl)amino)ethyl)furan-3-carboxamide], the melting point lay in the range of 172 to 174 °C. Also, in data set [1] (dose 10 mg/kg), the “Efficacy in killing %” value is 100%. The “Efficacy in killing %” value in data set [2] is recorded as 99%. The “Efficacy in killing %” value in data set [3] (dose 10 mg/kg) turned out to be 94%.
As to `Cc1sc(C2=NOC(c3cc(Cl)cc(Cl)c3)(C(F)(F)F)C2)cc1C(=O)NCC(=O)NCC#N` (stereo not drawn) [Compound 1.32, N-(2-((cyanomethyl)amino)-2-oxoethyl)-5-(5-(3,5-dichlorophenyl)-5-(trifluoromethyl)-4,5-dihydroisoxazol-3-yl)-2-methylthiophene-3-carboxamide], the “Efficacy in killing %” value in data set [1] (dose 100 mg/kg) is recorded as 85%; in data set [3] (dose 32 mg/kg), 96%.
